Like-named read-outs stand apart in the source and are kept apart here. Peptide text beside a SMILES is read from it. * marks the point of attachment. Cbz = O=C(OCc1ccccc1)*

The values below come from patent publication US20100240029A1, “Cholesterol-Regulating Complex of SIRT1 and LXR and Methods of Use” (Massachusetts Institute of Technology, priority 2006, published 2010).

The subject of data set [1] is mouse ABCA1 promoter (LXRE). Nature of the data set: mouse ABCA1 promoter driven luciferase reporter assay in HEK293T cells. As to conditions: for inhibition of 22(R)—HC+9-cisRA-induced luciferase expression, wildtype ABCA1 promoter: 10 mM nicotinamide or 1 μM TSA; for basal activity of control reporter missing the LXRE / induction of luciferase reporter driven by wildtype ABCA1 promoter: 6 h; for basal activity of control reporter missing the LXRE: 10 mM nicotinamide or 25 μM MG132; for induction of luciferase reporter driven by wildtype ABCA1 promoter: with 10 μM 22(R)—HC and 1 μM 9-cisRA, 10 mM nicotinamide, 25 μM MG132 or both. The format is cell-based. On the procedure: The luciferase reporter plasmid pGL3-ABCA1 was created by inserting the −847 to +244 of mouse ABCA1 promoter region into KpnI-XhoI sites of pGL3 vector (Promega, Madison, Wi). pGL3-ABCA1-LXRE, the LXRE mutant version of pGL3-ABCA1, was created by deleting the LXRE from wildtype promoter of mouse ABCA1.
For the luciferase assay, MEFIs or HEK293T cells plated in 24-well plates were transfected with 100 ng of pGL3-ABCA1 or pGL3-ABCA1-LXRE, and 10 ng of pRL-TK (Renilla luciferase; Promega). The cells transfected with wildtype (WT) or LXRE mutant (−LXRE) mouse ABCA1 promoter driven luciferase reporter vectors were treated with 1 μM Trichostatin A (TSA), an inhibitor of class I and II deacetylases, or 10 mM nicotinamide (Nico), or both 10 mM nicotinamide+1 μM TSA. Cells transfected with the LXRE mutant vector were incubated in DMEM with 10% FBS in the absence (solid bars) or presence (open bars) of 10 μM 22(R)—HC and 1 μM 9-cisRA (FIG. 2b). Luciferase activity was then measured by using the Dual-Luciferase Reporter Assay System (Promega) 6 or 24 h later. The final GL (firefly luciferase) activity was normalized with co-expressed RL (Renilla luciferase) activity. The experiments were performed in duplicate and were repeated 3 times.
HEK293T cells transfected with wildtype (WT; FIG. 4g, left panel) or LXRE mutant (−LXRE; FIG. 4g, right panel) mouse ABCA1 promoter driven luciferase reporter vectors were treated with either 10 mM nicotinamide (Nico), 25 μM MG132, or both 10 mM nicotinamide+25 μM MG132, in the absence (solid bars) or presence (open bars) of 10 μM 22(R)—HC and 1 μM 9-cisRA for 6 h. Luciferase activities were measured and normalized as in Example 5.
On the technique in general: A reporter such as luciferase makes a cellular process visible.

The next data set relates to HA-LXRβ. As to the kind of experiment: HA-LXRβ protein level in HEK293T cells by western blotting. Format: cell-based, mouse. As to conditions: 6 h; for levels of HA-LXRβ protein: 1 μM TSA, 10 mM nicotinamide or 25 μM MG132. On the procedure: HEK293T cells expressing HA-LXRβ driven by an exogenous CMV promoter were transfected either with pSuper vector, or with a pSuper-SIRT1 RNAi construct. Cells were harvested 3 days after transfection and the levels of HA-LXRβ and SIRT1 were analyzed by western blotting using antibodies to HA and SIRT1. […] Since there was no detectable reduction of LXR mRNA in SIRT1−/− mice (FIG. 3a), SIRT1 regulates LXR protein levels post-transcriptionally.
HEK293T cells expressing HA-LXRβ were treated with either control medium (FIG. 3c, lane 1), or medium with 1 μM TSA (lane 2), 10 mM nicotinamide (lane 3), 25 μM MG132 (carbobenzyloxy-Leu-Leu-Leu-al, a proteasome inhibitor) (lane 4), or 10 mM nicotinamide plus 25 μM MG132 (lane 5) for 6 h. Cells were then harvested and the levels of HA-LXRβ and SIRT1 were analyzed by western blotting using antibodies to HA (upper images) and SIRT1 (middle images). […] Since there was no detectable reduction of LXR's mRNA in SIRT1−/− mice (see Example 9, FIG. 3a), SIRT1 regulates LXR protein levels post-transcriptionally. It is believed that inhibition of SIRT1 activity by nicotinamide increases the protein levels of LXR by interfering with proteasome-mediated LXR degradation.
The basis for the finding that LXR activity is inversely correlated with protein levels was next examined. Since acetylation of lysine residues can block ubiquitination and SIRT1 is a deacetylase, loss of SIRT1 activity might stabilize LXR proteins by increasing the steady state level of LXR acetylation, thus inhibiting the ubiquitin/proteasome degradation pathway.
In general terms: A western blot detects proteins with antibodies after separation by electrophoresis.

In another data set the test system is THP-1 cells. As to the kind of experiment: apoAI-mediated [3H]cholesterol efflux from THP-1 cells. Format: cell-based, human. As to conditions: THP-1, 10 mM nicotinamide for 48 h, efflux to 15 μg/ml apoAI for 24 h. On the procedure:
For the human monocytic cell line THP-1 cells, cells were treated with 10 mM nicotinamide in RPMI1640/10% FBS for 48 h, then cholesterol loaded with 50 μg/ml of LDL and 1 μCi/ml of [^3H]cholesterol in RPMI1640/1% FBS/0.2% BSA medium for 24 h. Cells were washed with PBS and incubated in RPMI 1640/0.2% BSA with or without 15 μg/ml apoAI for 24 h. The medium and cells were then separated, and cells were lysed with 0.2N NaOH. The radioactivity recovered in the medium and cell lysates were measured and the apoAI-mediated cholesterol efflux was calculated as described above.

Data set [2] deals with T1, NH2-terminal HA-tagged mouse LXRβ.
T1 sequence: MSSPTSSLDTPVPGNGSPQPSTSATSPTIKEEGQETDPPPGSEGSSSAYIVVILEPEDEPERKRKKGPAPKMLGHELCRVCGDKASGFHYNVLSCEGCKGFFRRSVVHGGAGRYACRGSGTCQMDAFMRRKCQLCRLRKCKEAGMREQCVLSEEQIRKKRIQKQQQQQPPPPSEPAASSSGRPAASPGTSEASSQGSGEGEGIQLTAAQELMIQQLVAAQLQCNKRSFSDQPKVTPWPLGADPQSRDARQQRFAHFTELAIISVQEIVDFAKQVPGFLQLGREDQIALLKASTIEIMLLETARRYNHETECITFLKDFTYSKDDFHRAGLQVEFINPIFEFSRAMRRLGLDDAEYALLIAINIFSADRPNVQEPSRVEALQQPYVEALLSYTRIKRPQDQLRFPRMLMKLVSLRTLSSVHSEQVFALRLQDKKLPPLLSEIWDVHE

The next data set deals with LXR targets. As to the kind of experiment: LXR target mRNAs in livers of mice fed T0901317 (real-time PCR). The format is in vivo, mouse. The following applies: 10 mg/kg oral gavage, 8 days. From the text: Total RNA was isolated from mouse livers, testes, thioglycolate-stimulated peritoneal macrophages, and ovaries by a Qiagen RNeasy mini-kit (Qiagen Inc., Calencia, Ca.). For real-time PCR analysis, cDNA was synthesized by SuperScript III reverse transcriptase (Invitrogen, Carlsbad, Calif.) with random primers. The resulting cDNA was then subjected to PCR analysis with gene-specific primers in the presence of Cybergreen (Qiagen Inc., Calencia, Ca.). Relative abundance of mRNA was obtained by normalization to cyclophilin levels. […] The mRNA levels of ABCA1 were quantified by phosphoimager and normalized against the corresponding actin levels.
To gain further insight into the effect of SIRT1 on LXR function in vivo, wildtype and SIRT1^−/− animals were analyzed for their response to 8-day oral administration of the LXR agonist T0901317 (N-(2,2,2-trifluoro-ethyl)-N-[4-(2,2,2-trifluoro-1-hydroxy-1-trifluoromethyl-ethyl)-phenyl]-benzenesulfonamide)^53.
2-6 month old SIRT1−/− and control males were fed with T0901317 (10 mg/kg) by oral gavage, plasma were collected before and after feeding for plasma lipid analyses. […] Total RNA from liver of wildtype animals without (black filled bar) or fed with 10 mg/kg T0901317 (black striped bar) and SIRT1^−/− mice without (open bar) or with T0901317 (gray striped bar) were analyzed by real-time PCR. […]

A short description of data set [3]: plasma and liver lipids of mice after 8-day oral T0901317. Format: in vivo, mouse. As to the method:
To determine the total cholesterol levels in mouse tissues, SIRT1^−/− mice and control littermates were fasted for four hours from the beginning of the daylight cycle before sacrificing. Tissues were then harvested and weighted. Total cholesterol from liver and testis were extracted and measured by GC as described previously^70, 71. Total lipids including triglycerides were also dissolved into a solution containing 60% butanol, 13% methanol, and 27% Triton X-100, and measured with the enzymatic, colorimetric assay kits from Wako.
2-6 month old SIRT1−/− and control males were fed with T0901317 (10 mg/kg) by oral gavage, plasma were collected before and after feeding for plasma lipid analyses. Tissues were collected after feeding for further analyses. Total RNA from liver of wildtype animals without (black filled bar) or fed with 10 mg/kg T0901317 (black striped bar) and SIRT1^−/− mice without (open bar) or with T0901317 (gray striped bar) were analyzed by real-time PCR. […] However, the induction of these targets in SIRT1^−/− mice was blunted. Total protein lysates were obtained from livers of indicated mice and analyzed for the levels of ABCA1 protein by immunoblotting (FIG. 3c). (As previously observed, ABCA1 proteins comprise multiple bands by western blotting^78.)
Plasma results in FIG. 3, panels d, e, and f represent the same mice before and after 8-days administration of T0901317. […]

For data set [4] the following is noted: through induction of SREBP-1c; cited from earlier work.
Data set [5] deals with T2, NH2-terminal HA-tagged mouse LXRβ.
T2 chain: T1 sequence

For `CC(/C=C/C(=O)NO)=C\[C@@H](C)C(=O)c1ccc(N(C)C)cc1` [TSA, Trichostatin A], in data set [1], the “inhibition of 22(R)—HC+9-cisRA-induced luciferase expression, wildtype ABCA1 promoter” value is given as “not inhibited”.
`CC(C)C[C@@H](C=O)NC(=O)[C@H](CC(C)C)NC(=O)[C@H](CC(C)C)NC(=O)OCc1ccccc1` [MG132, carbobenzyloxy-Leu-Leu-Leu-al] (Cbz-Leu-Leu-Leu-aldehyde): in data set [1], the “basal activity of control reporter missing the LXRE” value was “not altered” and the “induction of luciferase reporter driven by wildtype ABCA1 promoter” value was “inhibited the reporter to the same extent as nicotinamide”. Also, the “levels of HA-LXRβ protein” value in the data set with HA-LXRβ is “increase the steady state levels of LXR”. For the same molecule, the “levels of HA-LXRβ protein when SIRT1 is inhibited by nicotinamide” value in the data set on HA-LXRβ (25 μM MG132 plus 10 mM nicotinamide (lane 4 vs. lane 5)) is on record as “not when SIRT1 is inhibited by nicotinamide”.
On to `NC(=O)c1cccnc1` [nicotinamide], for which, in the data set on THP-1 cells, the “suppression of apoAI-mediated [3H]cholesterol efflux” value was “roughly three-fold”. In addition, in data set [1], the “inhibition of 22(R)—HC+9-cisRA-induced luciferase expression, wildtype ABCA1 promoter” value is recorded as 50%; the “basal activity of control reporter missing the LXRE” value is given as “not altered”; the “induction of luciferase reporter driven by wildtype ABCA1 promoter” value was “blunted the induction”. Also, the “levels of HA-LXRβ protein” value in the data set with HA-LXRβ is on record as “elevated levels”.
On to “human SIRT1 H355Y, inactive deacetylase mutant”, for which the “amount of ubiquitin-conjugated LXR (anti-HA immunoprecipitation, western blot with anti-ubiquitin)” value in data set [2] is “but not the inactive mutant hSIRT1HY increased the amount of ubiquitin-conjugated LXR in transfected HEK293T cells”.
In the case of `O=S(=O)(c1ccccc1)N(CC(F)(F)F)c1ccc(C(O)(C(F)(F)F)C(F)(F)F)cc1` [T0901317, N-(2,2,2-trifluoro-ethyl)-N-[4-(2,2,2-trifluoro-1-hydroxy-1-trifluoromethyl-ethyl)-phenyl]-benzenesulfonamide], the “induction of LXR targets SREBP-1c, LPL and ABCA1 in liver” value with LXR targets (SIRT1−/− mice) was “blunted”. The “expression of LXR targets SREBP-1c, LPL and ABCA1 at the RNA level in liver” value with LXR targets (wildtype mice) is “significantly induced”. For the same molecule, the “induction of plasma and hepatic triglyceride accumulation” value in data set [3] (SIRT1−/− vs wildtype mice, 10 mg/kg oral, 8 days) was “reduced response”. Moreover, the “plasma cholesterol levels after feeding” value in data set [3] (SIRT1−/− vs wildtype treated mice, especially HDL size particles) is on record as “Lower plasma cholesterol levels”. For the same molecule, the “plasma and hepatic triglycerides” value in data set [4] was “elevation of plasma and hepatic triglycerides”.

B1: human SIRT1 protein (protein)
chain: MADEAALALQPGGSPSAAGADREAASSPAGEPLRKRPRRDGPGLERSPGEPGGAAPEREVPAAARGCPGAAAAALWREAEAEAAAAGGEQEAQATAAAGEGDNGPGLQGPSREPPLADNLYDEDDDDEGEEEEEAAAAAIGYRDNLLFGDEIITNGFHSCESDEEDRASHASSSDWTPRPRIGPYTFVQQHLMIGTDPRTILKDLLPETIPPPELDDMTLWQIVINILSEPPKRKKRKDINTIEDAVKLLQECKKIIVLTGAGVSVSCGIPDFRSRDGIYARLAVDFPDLPDPQAMFDIEYFRKDPRPFFKFAKEIYPGQFQPSLCHKFIALSDKEGKLLRNYTQNIDTLEQVAGIQRIIQCHGSFATASCLICKYKVDCEAVRGDIFNQVVPRCPRCPADEPLAIMKPEIVFFGENLPEQFHRAMKYDKDEVDLLIVIGSSLKVRPVALIPSSIPHEVPQILINREPLPHLHFDVELLGDCDVIINELCHRLGGEYAKLCCNPVKLSEITEKPPRTQKELAYLSELPPTPLHVSEDSSSPERTSPPDSSVIVTLLDQAAKSNDDLDVSESKGCMEEKPQEVQTSRNVESIAEQMENPDLKNVGSSTGEKNERTSVAGTVRKCWPNRVAKEQISRRLDGNQYLFLPPNRYIFHGAEVYSDSEDDVLSSSSCGSNSDSGTCQSPSLEEPMEDESEIEEFYNGLEDEPDVPERAGGAGFGTDGDDQEAINEAISVKQEVTDMNYPSNKS
For the molecule B1, the “amount of ubiquitin-conjugated LXR (anti-HA immunoprecipitation, western blot with anti-ubiquitin)” value in data set [5] is “expression of an active SIRT1 transgene (hSIRT1) but not the inactive mutant hSIRT1HY increased the amount of ubiquitin-conjugated LXR in transfected HEK293T cells”.
